Like-named read-outs stand apart in the source and are kept apart here.
Assays:
ECATS2 (DM-20) = biological target: T1, ECATS2 (DM-20) (Bacillus sp. PS3, UniProt A0A0M5MQR7, R103A/R115A); assay: FRET ratio live-cell imaging dose response; assay type: cell-based
T1 construct: gene uncC; double-mutant epsilon subunit between mseCFP and mVenus, 20 nm alpha-helical ER/K linker to PDGFR transmembrane domain

ecATeam3.10 = biological target: T2, ecATeam3.10 (Bacillus sp. PS3, UniProt A0A0M5MQR7); assay: FRET ratio live-cell imaging dose response; assay type: cell-based; settings: read-out: apparent dissociation constant
T2 construct: gene uncC; expressed on Neuro2A or HEK293 cells
T2 sequence (A0A0M5MQR7 1-133): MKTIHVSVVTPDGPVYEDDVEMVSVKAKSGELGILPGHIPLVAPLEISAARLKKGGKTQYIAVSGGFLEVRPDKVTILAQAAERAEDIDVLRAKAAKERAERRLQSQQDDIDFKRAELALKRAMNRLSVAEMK

T1 sequence (A0A0M5MQR7 1-133, stated change not applied): as the sequence (A0A0M5MQR7 1-133) above

SMILES	Kd (ECATS2 (DM-20); read-out: apparent ADP dissociation constant) [µM]	Kd (ECATS2 (DM-20); read-out: apparent dissociation constant) [µM]	Kd (ecATeam3.10) [µM]
Nc1ncnc2c1ncn2[C@@H]1O[C@H](COP(=O)(O)OP(=O)(O)O)[C@@H](O)[C@H]1O [ADP]	~100	–	–
Nc1ncnc2c1ncn2[C@@H]1O[C@H](COP(=O)(O)OP(=O)(O)OP(=O)(O)O)[C@@H](O)[C@H]1O [ATP]	–	3.7 ± 0.6	12 ± 5

Source: article PMC12473246, “An Improved Ratiometric FRET Biosensor with Higher Affinity for Extracellular ATP” (Sensors (Basel, Switzerland), 2025)
